According to patent US8431596B2 (Cancer Research Technology Limited, priority 2007, dated 2013):

Biological target: T1, AXL (human catalytic domain) (Homo sapiens, UniProt P30530)
T1 construct: purchased Upstate Ltd. 14-512
T1 sequence (P30530 473-894): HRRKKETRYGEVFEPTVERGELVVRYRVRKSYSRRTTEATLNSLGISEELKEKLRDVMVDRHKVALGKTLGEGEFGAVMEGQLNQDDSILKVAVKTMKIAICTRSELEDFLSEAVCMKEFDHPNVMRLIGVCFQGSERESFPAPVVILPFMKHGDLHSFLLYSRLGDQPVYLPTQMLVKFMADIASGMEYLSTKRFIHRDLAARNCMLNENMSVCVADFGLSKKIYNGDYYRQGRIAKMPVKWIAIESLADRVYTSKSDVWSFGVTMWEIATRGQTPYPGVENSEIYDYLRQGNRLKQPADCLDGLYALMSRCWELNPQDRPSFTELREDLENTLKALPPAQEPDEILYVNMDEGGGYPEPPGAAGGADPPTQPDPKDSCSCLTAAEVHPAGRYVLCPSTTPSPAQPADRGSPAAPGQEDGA
Test: AXL (human catalytic domain) Enzyme Activity Assay (IMAP fluorescence polarisation)
Type: biochemical
Outline: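 IMAP FP readout (Ex485/Em535, after overnight binding) measured inhibition of the human AXL catalytic domain (aa473-894, 15 nM final) acting on 100 nM 5FAM-CSK-tide at 150 μM ATP, equal to KM. Reactions ran 60 min at room temperature in pH 7.0 HEPES buffer; IC50 from 10-point curves.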

[1] = first data set, recombinant AXL isoform 1 aa473-894, 150 μM ATP
[2] = further data set (WW-001 through WW-169, XX-001 through XX-469, YY-001 through YY-016, ZZ-001 through ZZ-003), 150 μM ATP

IC50 [1] | IC50 [2] | Compound
1000 to 10000 nM | 1000 to 10000 nM | O=C(Nc1nc2cccc(-c3ccc(N4CCNCC4)cc3)n2n1)C1CC1 [WW-151, Cyclopropanecarboxylic acid [5-(4-piperazin-1-yl-phenyl)-[1,2,4]triazolo[1,5-a]pyridin-2-yl]-amide]
1000 to 10000 nM | 1000 to 10000 nM | CC(C)Oc1cccc(-c2cccc3nc(NC(=O)C4CC4)nn23)c1 [WW-152]
1000 to 10000 nM | 1000 to 10000 nM | CCN(CC)CCNc1ccc(-c2cccc3nc(NC(=O)C4CC4)nn23)cc1 [WW-153, Cyclopropanecarboxylic acid {5-[4-(2-diethylamino-ethylamino)-phenyl]-[1,2,4]triazolo[1,5-a]pyridin-2-yl}-amide]
1000 to 10000 nM | 1000 to 10000 nM | NCC(=O)Nc1ccc(-c2cccc3nc(NC(=O)C4CC4)nn23)cc1 [WW-155, Cyclopropanecarboxylic acid {5-[4-(2-amino-acetylamino)-phenyl]-[1,2,4]triazolo[1,5-a]pyridin-2-yl}-amide]
1000 to 10000 nM | 1000 to 10000 nM | O=C(Nc1nc2cccc(-c3ccc(NS(=O)(=O)c4ccccc4)cc3)n2n1)C1CC1 [WW-156]
1000 to 10000 nM | 1000 to 10000 nM | NCCCNc1ccc(-c2cccc3nc(NC(=O)C4CC4)nn23)cc1 [WW-157]
1000 to 10000 nM | 1000 to 10000 nM | NCCNc1ccc(-c2cccc3nc(NC(=O)C4CC4)nn23)cc1 [WW-158, Cyclopropanecarboxylic acid {5-[4-(2-amino-ethylamino)-phenyl]-[1,2,4]triazolo[1,5-a]pyridin-2-yl}-amide]
< 1000 nM | 100 to 1000 nM | O=C(Nc1nc2cccc(-c3ccc4c(c3)CCO4)n2n1)C1CC1 [WW-159]
1000 to 10000 nM | 1000 to 10000 nM | COc1cccc(Nc2cccc3nc(NC(=O)C4CC4)nn23)c1 [WW-160]
1000 to 10000 nM | 1000 to 10000 nM | COc1cc(Nc2cccc3nc(NC(=O)C4CC4)nn23)cc(OC)c1OC [WW-161]
1000 to 10000 nM | 1000 to 10000 nM | O=C(Nc1nc2cccc(-c3ccc(Oc4ccccc4)cc3)n2n1)C1CC1 [WW-162]
1000 to 10000 nM | 1000 to 10000 nM | COc1ccc(CNc2cccc3nc(NC(=O)C4CC4)nn23)cc1 [WW-167]
– | 1000 to 10000 nM | CN1CCN(CCC(=O)Nc2nc3cccc(-c4ccc5c(c4)OCCO5)n3n2)CC1 [WW-169]
< 1000 nM | ≤ 100 nM | COc1cc(Nc2nc3cccc(-c4ccc5c(c4)OCCO5)n3n2)ccc1OCCN1CCCC1 [XX-001]
< 1000 nM | 100 to 1000 nM | CN(C)CCNC(=O)c1cccc(Nc2nc3cccc(-c4ccc5c(c4)OCO5)n3n2)c1 [XX-002]
1000 to 10000 nM | 100 to 1000 nM | COc1ccc(-c2cccc3nc(NCC4CC4)nn23)cc1 [XX-003, Cyclopropylmethyl-[5-(4-methoxy-phenyl)-[1,2,4]triazolo[1,5-a]pyridin-2-yl]-amine]
< 1000 nM | 1000 to 10000 nM | COc1ccc(-c2cccc3nc(Nc4ccc(OCCN5CCCC5)cc4)nn23)cc1 [XX-004]
< 1000 nM | ≤ 100 nM | COc1ccc(-c2cccc3nc(Nc4ccc(OCCN5CCOCC5)cc4)nn23)cc1 [XX-005]
< 1000 nM | 100 to 1000 nM | COc1ccc(-c2cccc3nc(Nc4ccc(OCCN(C)C)cc4)nn23)cc1 [XX-006]
< 1000 nM | ≤ 100 nM | COc1ccc(-c2cccc3nc(Nc4ccc(N)cc4)nn23)cc1 [XX-007]

IC50 [1] | IC50 [2] | Compound
– | 100 to 1000 nM | COc1ccc(-c2cccc3nc(Nc4cccc(C(C)=O)c4)nn23)cc1 [XX-008]
1000 to 10000 nM | – | COc1ccc(-c2cccc3nc(Nc4ccc(OC)nc4)nn23)cc1 [XX-010]
< 1000 nM | 1000 to 10000 nM | COc1ccc(-c2cccc3nc(Nc4ccc(OCCO)cc4)nn23)cc1 [XX-011, 2-{4-[5-(4-methoxy-phenyl)-[1,2,4]triazolo[1,5-a]pyridin-2-ylamino]-phenoxy}-ethanol]
< 1000 nM | 100 to 1000 nM | CC(C)Oc1ccc(-c2cccc3nc(Nc4ccc(OCCN5CCCC5)cc4)nn23)cc1 [XX-012]
< 1000 nM | 100 to 1000 nM | COc1ccc(-c2cccc3nc(Nc4ccc5c(c4)OCCN5C)nn23)cc1 [XX-013]
< 1000 nM | 100 to 1000 nM | COc1ccc(-c2cccc3nc(Nc4cccc(OCCN5CCOCC5)c4)nn23)cc1 [XX-014]
< 1000 nM | 100 to 1000 nM | COc1ccc(-c2cccc3nc(Nc4cccc(OCCn5ccnc5)c4)nn23)cc1 [XX-015, [3-(2-Imidazol-1-yl-ethoxy)-phenyl]-[5-(4-methoxy-phenyl)-[1,2,4]triazolo[1,5-a]pyridin-2-yl]-amine]
< 1000 nM | 100 to 1000 nM | COc1ccc(-c2cccc3nc(Nc4ccc(OCCn5ccnc5)cc4)nn23)cc1 [XX-016]
< 1000 nM | 100 to 1000 nM | Cn1cc(-c2cccc3nc(Nc4ccc(OCCN5CCCC5)cc4)nn23)cn1 [XX-017]
< 1000 nM | 100 to 1000 nM | c1cc(-c2ccc3c(c2)OCCO3)n2nc(Nc3ccc(OCCN4CCCC4)cc3)nc2c1 [XX-018]
< 1000 nM | ≤ 100 nM | COc1ccc(-c2cccc3nc(Nc4ccc(OCCN5CCCCC5)cc4)nn23)cc1 [XX-019]
< 1000 nM | ≤ 100 nM | c1cc(-c2ccc3occc3c2)n2nc(Nc3ccc(OCCN4CCCC4)cc3)nc2c1 [XX-020]
< 1000 nM | ≤ 100 nM | c1cc(-c2ccc3c(c2)OCO3)n2nc(Nc3ccc(OCCN4CCCC4)cc3)nc2c1 [XX-021]
< 1000 nM | 100 to 1000 nM | CNCCOc1ccc(Nc2nc3cccc(-c4ccc(OC)cc4)n3n2)cc1 [XX-022]
< 1000 nM | ≤ 100 nM | COc1ccc(-c2cccc3nc(Nc4ccc(N5CCNCC5)cc4)nn23)cc1 [XX-023, [5-(4-Methoxy-phenyl)-[1,2,4]triazolo[1,5-a]pyridin-2-yl]-(4-piperazin-1-yl-phenyl)-amine]
1000 to 10000 nM | ≤ 100 nM | COc1ccc(-c2cccc3nc(Nc4ccc(N5CCOCC5)cc4)nn23)cc1 [XX-024]
< 1000 nM | 100 to 1000 nM | COc1ccc(-c2cccc3nc(Nc4ccc(OCCNCCO)cc4)nn23)cc1 [XX-026]
< 1000 nM | 100 to 1000 nM | COc1ccc(-c2cccc3nc(Nc4ccc(OCCNCCN(C)C)cc4)nn23)cc1 [XX-027]
< 1000 nM | 100 to 1000 nM | COc1ccc(-c2cccc3nc(Nc4ccc(OCCNc5ccncc5)cc4)nn23)cc1 [XX-028]
< 1000 nM | 100 to 1000 nM | COc1ccc(-c2cccc3nc(Nc4ccc(OCCNCc5ccccn5)cc4)nn23)cc1 [XX-029]

IC50 [1] | IC50 [2] | Compound
< 1000 nM | 100 to 1000 nM | CCc1nnc(NCCOc2ccc(Nc3nc4cccc(-c5ccc(OC)cc5)n4n3)cc2)[nH]1 [XX-030]
< 1000 nM | 100 to 1000 nM | COCCNCCOc1ccc(Nc2nc3cccc(-c4ccc(OC)cc4)n3n2)cc1 [XX-031]
< 1000 nM | ≤ 100 nM | COc1ccc(-c2cccc3nc(Nc4ccc(OCCNCc5ccncc5)cc4)nn23)cc1 [XX-032]
< 1000 nM | 100 to 1000 nM | COc1ccc(-c2cccc3nc(Nc4ccc(OCCNCc5cccnc5)cc4)nn23)cc1 [XX-033]
< 1000 nM | 100 to 1000 nM | COc1ccc(-c2cccc3nc(Nc4ccc(OCCNCc5ccc(N)cc5)cc4)nn23)cc1 [XX-034]
1000 to 10000 nM | ≤ 100 nM | CNC(=O)COc1ccc(Nc2nc3cccc(-c4ccc(OC)cc4)n3n2)cc1 [XX-035]
< 1000 nM | 1000 to 10000 nM | COc1ccc(-c2cccc3nc(Nc4ccc(C(=O)NCCN(C)C)cc4)nn23)cc1 [XX-036]
< 1000 nM | ≤ 100 nM | COc1ccc(-c2cccc3nc(Nc4cccc(C(=O)NCCN(C)C)c4)nn23)cc1 [XX-037]
< 1000 nM | ≤ 100 nM | c1cc(-c2ccc(N3CCOCC3)cc2)n2nc(Nc3ccc(OCCN4CCCC4)cc3)nc2c1 [XX-038]
– | 100 to 1000 nM | COc1ccc(-c2cccc3nc(Nc4ccc(OCCCN5C(=O)c6ccccc6C5=O)cc4)nn23)cc1 [XX-039, 2-(3-{4-[5-(4-methoxy-phenyl)-[1,2,4]triazolo[1,5-a]pyridin-2-ylamino]-phenoxy}-propyl)-isoindole-1,3-dione]
< 1000 nM | – | CNCCCOc1ccc(Nc2nc3cccc(-c4ccc(OC)cc4)n3n2)cc1 [XX-040]
< 1000 nM | 100 to 1000 nM | COc1ccc(-c2cccc3nc(Nc4ccc(OCCCN)cc4)nn23)cc1 [XX-041, [4-(3-Amino-propoxy)-phenyl]-[5-(4-methoxy-phenyl)-[1,2,4]triazolo[1,5-a]pyridin-2-yl]-amine]
– | 100 to 1000 nM | COc1ccc(-c2cccc3nc(Nc4cccc(C(=O)NCCO)c4)nn23)cc1 [XX-042]
< 1000 nM | – | c1cc(-c2ccc3c(c2)CCO3)n2nc(Nc3ccc(OCCN4CCCC4)cc3)nc2c1 [XX-044]
< 1000 nM | 100 to 1000 nM | COc1ccc(-c2cccc3nc(Nc4cccc(OCCCN)c4)nn23)cc1 [XX-045]
< 1000 nM | ≤ 100 nM | COc1ccc(-c2cccc3nc(Nc4ccc(OCCN)cc4)nn23)cc1 [XX-046]
< 1000 nM | 100 to 1000 nM | c1cc(-c2ccc3c(c2)OCO3)n2nc(Nc3ccc(OCCN4CCCCC4)cc3)nc2c1 [XX-047]
< 1000 nM | 100 to 1000 nM | CN(C)CCOc1ccc(Nc2nc3cccc(-c4ccc5c(c4)OCO5)n3n2)cc1 [XX-048]
